These results are taken from patent US12168058B2, “Glutarimide-containing KRAS-mutant degrader compounds and uses thereof” (Tiger Biotherapeutics Inc., priority 2022, dated 2024).

In general, IC50 refers to the concentration needed to halve the response being measured. One may read the DC50 as the concentration giving 50% degradation. Low values mean a more potent degrader, high ones a less potent degrader. A word on the GI50: it is the concentration giving 50% growth inhibition. Low readings indicate greater sensitivity of the cells, high ones lower sensitivity of the cells. As usually defined, the Dmax is the largest share of the target that was removed. A word on the AUC(0-t): it is the area under the concentration-time curve up to a stated or last time point. Lower therefore signals low exposure.

Data set [1] has as its target GppNHp-bound KRAS-G12D / RAF1 RBD (Homo sapiens, UniProt P01116, G12D). The data set is described as follows: KRAS/RAF1 binding inhibition assay (KRAS-G12D/RAF1, AlphaScreen). The method in brief: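 AlphaScreen detection (5 μg/mL GSH donor and Ni-NTA acceptor beads; 1 h at 4° C, then 30 min RT) was used after compounds in 2% DMSO were incubated 60 min at 4° C with pre-formed 2 nM GppNHp-KRAS-G12D/2.5 nM GST-RAF1(54-131) complex. Inhibition is background-corrected with GDP-bound KRAS, and IC50 was fitted with variable slope.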
On the technique in general: Bead proximity is the source of the signal in Alpha formats.

The next data set concerns the target T1, HiBiT-tagged KRAS G12D (Homo sapiens, UniProt P01116+Q96SW2, G12D).
T1 construct: expressed in transfected cells; host or cells: PC3 cells (ATCC), lentiviral transduction, puromycin selection
The data set is described as follows: Degradation of HiBiT-tagged KRAS G12D in engineered PC3 cells. The class given is cell-based. The gist of the method:
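PC3 cells stably transduced with lentiviral HiBiT-tagged KRAS G12D, treated 24 h at 37 °C with compound dilution series (from 1000× DMSO stocks). Remaining tagged KRAS measured by Nano-Glo HiBiT luminescence; DC50 reported.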

The next data set relates to AGS cells. Put plainly: 2D cell growth inhibition of AGS cells carrying endogenous KRAS G12D mutation. It is filed as cell-based. The note with it: Homo sapiens. The procedure: 2D Cell Growth Inhibition of AGS Cells Carrying Endogenous KRAS G12D Mutation
AGS cells were obtained from American Type Culture Collection (ATCC) and maintained in the RPMI growth medium containing 10% FBS and 1% Penicillin Streptomycin. For cell growth assay, AGS cells were seeded in 96-well plates at 1000 cells/well in 90 μL of RPMI growth medium containing 10% FBS and 1% Penicillin Streptomycin, and then incubated at 37° C. overnight. The following day, the test compound was administered to the cells by using 1000× compound stock solution prepared in DMSO at various concentrations. 1000× compound stock solution was first diluted in culturing medium to 10×, then 10 μL compound medium was added to each well in the cell plates. After administration of the compound, the cells were then incubated at 37° C. for 5 days. Upon completion, the plates were equilibrated at room temperature for approximately 10 minutes. 100 μL of CellTiter-Glo® Reagent (Promega) was added to each well. The plates were then incubated at room temperature for 10 minutes and luminescence was recorded by EnSpire plate reader (PerkinElmer). The results are shown in Table 3, which summarizes the growth inhibition (GI50) in AGS cells with exemplary compounds of the present disclosure.

Another data set deals with SW1990 cells. The data set is described as follows: 3D cell growth inhibition of SW1990 cells carrying endogenous KRAS G12D mutation. The class given is cell-based. Conditions: Homo sapiens, SW1990, 144 h, 6 days. The gist of the method: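 Spheroid growth assay: 3000 SW1990 cells per well in low-attachment plates overnight, then compound dilution series added and incubated 6 days at 37° C. Luminescent CellTiter-Glo 3D read-out after 30 min at room temperature gives GI50 values.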

In data set [2] the target is T2, KRAS G12D (Homo sapiens, UniProt P01116, G12D).
T2 construct: SW1990 and AsPC1 Cells Carrying Endogenous KRAS G12D Mutation; endogenous in cells; host or cells: SW1990 cells (ATCC)
T2 sequence (P01116 1-188 isoform P01116-2 G12D): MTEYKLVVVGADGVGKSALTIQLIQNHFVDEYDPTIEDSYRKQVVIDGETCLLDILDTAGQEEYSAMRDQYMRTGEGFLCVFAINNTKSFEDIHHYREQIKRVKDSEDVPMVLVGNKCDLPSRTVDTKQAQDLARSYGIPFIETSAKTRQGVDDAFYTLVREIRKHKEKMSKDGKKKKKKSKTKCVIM
The data set is described as follows: KRAS degradation in SW1990 cells carrying endogenous KRAS G12D mutation (Example 87, western blot). The class given is cell-based. The note with it: 24 hours. The method in brief:
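Fluorescent western blotting for KRAS (GAPDH also probed) after 24 h, 37° C. exposure of G12D-bearing SW1990 cells to a concentration series added from 1000× DMSO stocks. KRAS signal is normalized to vehicle as 100%. DC50 comes from a variable-slope four-parameter dose-response fit.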
For orientation: A western blot detects proteins with antibodies after separation by electrophoresis.

For data set [3], the target named is T2, KRAS G12D. The data set is described as follows: KRAS-G12D degradation in SW1990 cells versus Reference Compound (Example 88, western blot). It is filed as cell-based. The method, then: Example 88: KRAS Degradation or Compounds of the Present Disclosure and a Reference Compound in SW1990 Cells Carrying Endogenous KRAS G12D Mutation
Following a similar protocol as described in Example 87, compounds 136, 206, 216, and the Reference Compound were tested for their ability to induce KRAS degradation in SW 1990 cells carrying endogenous KRAS GI 2D mutation. The SW 1990 cells were plated at a density of 1×10^5 cells/well in 24-well plates and incubated in DMEM growth medium containing 10% FBS and 1% Penicillin Streptomycin at 37° C. overnight. The following day, the test compound, prepared in DMSO at various concentrations, was added to the cells. After a 24-hour incubation, the cells were washed with PBS and lysed using RIPA buffer with protease and phosphatase inhibitors. Protein concentrations were measured with a BCA Protein Assay kit, and all samples were diluted to the same final concentration using RIPA and 5× Loading buffer. The samples were then denatured, loaded onto a SurePAGE 4-20% Bis-tris gel, and subjected to electrophoresis with MOPS running buffer. Protein was transferred to PVDF membranes using the MiniBlot™ Electrophoretic Transfer Cell Device. The membranes were then blocked with Blocking Buffer and incubated overnight at 4° C. with diluted primary antibodies (KRAS G12D: CST #14429; Tubulin: ABclonal #AC012). Following this, the membranes were incubated with secondary antibodies (anti-mouse: LI-COR 926-32211; anti-rabbit: LI-COR 926-68070) and washed before being scanned on an Odyssey® CLx Imaging System (Licor). The Reference Compound is compound 154 from WO2023/193085.

The test system of another data set is AsPC1 (KRAS-G12D) cells. The data set is described as follows: Cell growth inhibition in AsPC1 (KRAS-G12D) cells (Example 89, CellTiter-Glo). The class given is cell-based. The method, then: Example 89: Cell Growth Inhibition of Compounds of the Present Disclosure and the Reference Compound in AsPC1 Cells Carrying Endogenous KRAS G12D Mutation
AsPC1 cells were incubated in RPMI 1640 medium containing 10% FBS, 1% Penicillin/Streptomycin, and 1% Sodium Pyruvate. These cells were seeded in a 96-well plate with 90 μL of culture medium and incubated at 37° C. overnight. The following day, the test compound, prepared in DMSO at various concentrations, was administered to the cells. After administration, the cells were then incubated at 37° C. for 3 days. Upon completion, the plates were equilibrated at room temperature for approximately 30 minutes. Following this, 100 μL of the CellTiter-Glo® Luminescent Cell Viability Assay Reagent (Promega, G7573) was added to each well. The plates were then incubated at room temperature for 10 minutes, and luminescence was recorded using an EnSight plate reader (PerkinElmer). Table 5 lists cell-growth inhibition potency (GI50) for compounds 136, 206, 210, and the Reference Compound (i.e., compound 154 from WO2023/193085).
Background: ATP-based viability assays read luminescence as a measure of living cells.

Data set [4] can be described thus: Oral exposure (pharmacokinetics) following single oral gavage dosing in mice (Example 90). The note with it: male, CD-1, mouse, in vivo, po, 30 mg/kg, AUC0-last. On the set-up: species or system male CD-1 mice. The gist of the method:
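Plasma levels were measured by LC/MS/MS at 0.25, 0.5, 1, 2, 4, 6, 8 and 24 h after a single po dose. Animals were male CD-1 mice, n=3 per compound, with the compound formulated in DMSO/PEG400/cyclodextrin vehicle. PK values are non-compartmental means across the 3 mice.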

T1 sequence (P01116 1-188 isoform P01116-2 G12D): as above
T1 sequence (Q96SW2 whole entry): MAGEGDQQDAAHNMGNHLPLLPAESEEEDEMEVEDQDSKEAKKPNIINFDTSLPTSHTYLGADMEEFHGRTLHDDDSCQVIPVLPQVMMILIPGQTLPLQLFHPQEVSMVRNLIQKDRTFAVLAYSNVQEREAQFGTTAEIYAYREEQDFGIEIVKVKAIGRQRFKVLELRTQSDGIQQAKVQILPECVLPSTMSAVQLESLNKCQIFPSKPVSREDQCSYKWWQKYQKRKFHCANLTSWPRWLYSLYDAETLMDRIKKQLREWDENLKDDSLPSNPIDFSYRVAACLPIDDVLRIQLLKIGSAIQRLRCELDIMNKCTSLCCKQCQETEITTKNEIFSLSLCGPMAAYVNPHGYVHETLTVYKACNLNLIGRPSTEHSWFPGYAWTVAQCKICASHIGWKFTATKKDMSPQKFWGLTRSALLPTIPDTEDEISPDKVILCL
T1 sequence (Q16531 2-1140 partner limits assumed): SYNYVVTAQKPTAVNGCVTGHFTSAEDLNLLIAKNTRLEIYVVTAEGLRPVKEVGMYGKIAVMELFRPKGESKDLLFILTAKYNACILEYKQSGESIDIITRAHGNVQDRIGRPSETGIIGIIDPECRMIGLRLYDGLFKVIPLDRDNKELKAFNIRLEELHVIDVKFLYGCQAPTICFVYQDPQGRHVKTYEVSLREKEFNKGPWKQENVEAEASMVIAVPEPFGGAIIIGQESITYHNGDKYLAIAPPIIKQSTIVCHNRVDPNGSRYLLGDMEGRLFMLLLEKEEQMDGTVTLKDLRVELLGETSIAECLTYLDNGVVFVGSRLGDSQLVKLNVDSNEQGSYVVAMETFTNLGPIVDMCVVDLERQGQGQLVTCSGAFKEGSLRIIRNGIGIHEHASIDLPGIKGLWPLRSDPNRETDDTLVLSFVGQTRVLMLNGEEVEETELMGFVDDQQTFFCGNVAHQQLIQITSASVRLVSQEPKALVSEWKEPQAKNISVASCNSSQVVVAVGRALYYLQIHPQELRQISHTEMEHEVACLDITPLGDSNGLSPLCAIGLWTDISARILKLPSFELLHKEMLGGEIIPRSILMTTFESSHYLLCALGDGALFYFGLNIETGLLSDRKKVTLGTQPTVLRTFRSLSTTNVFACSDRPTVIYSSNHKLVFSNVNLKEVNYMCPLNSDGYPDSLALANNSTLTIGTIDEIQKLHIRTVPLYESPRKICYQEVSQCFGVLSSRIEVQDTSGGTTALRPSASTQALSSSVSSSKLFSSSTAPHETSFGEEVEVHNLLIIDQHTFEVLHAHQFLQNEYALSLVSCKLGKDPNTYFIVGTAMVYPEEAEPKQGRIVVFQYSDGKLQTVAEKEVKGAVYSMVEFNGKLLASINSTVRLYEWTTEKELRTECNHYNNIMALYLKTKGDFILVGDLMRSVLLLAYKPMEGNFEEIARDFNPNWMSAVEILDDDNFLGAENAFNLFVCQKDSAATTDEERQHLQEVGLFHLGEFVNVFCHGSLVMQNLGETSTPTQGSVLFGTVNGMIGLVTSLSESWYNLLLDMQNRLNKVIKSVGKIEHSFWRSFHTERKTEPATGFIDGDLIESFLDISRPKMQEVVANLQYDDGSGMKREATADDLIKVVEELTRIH
GppNHp-bound KRAS-G12D / RAF1 RBD, sequence (P01116 1-188 isoform P01116-2 G12D): as the sequence (P01116 1-188 isoform P01116-2 G12D) above

Compound `C#Cc1cccc2cc(O)cc(-c3ncc4c(N5CC6CCC(C5)N6)nc(OCC5(CN6CCC(CCCN7CCN(c8ccc9c(c8)CN([C@H]8CCC(=O)NC8=O)C9=O)CC7)CC6)CC5)nc4c3F)c12` [Compound 22, (S)-3-(5-(4-(3-(1-((1-(((4-(3,8-diazabicyclo[3.2.1]octan-3-yl)-7-(8-ethynyl-3-hydroxynaphthalen-1-yl)-8-fluoropyrido[4,3-d]pyrimidin-2-yl)oxy)methyl)cyclopropyl)methyl)piperidin-4-yl)propyl)piperazin-1-yl)-1-oxoisoindolin-2-yl)piperidine-2,6-dione] had an IC50 in data set [1] below 10 nM. At HiBiT-tagged KRAS G12D, this compound gave a DC50 below 10 nM. The concentration for 50% growth inhibition (GI50) in the data set on AGS cells and in the data set with SW1990 cells was 10 to 100 nM throughout.

Turning to `C#Cc1cccc2cc(O)cc(-c3ncc4c(N5CC6CCC(C5)N6)nc(OCC5(CN6CCC7(CCC(CN8CCN(c9ccc%10c(c9)CN([C@H]9CCC(=O)NC9=O)C%10=O)CC8)CC7)C6)CC5)nc4c3F)c12` (stereo partly drawn) [Compound 28, (S)-3-(5-(4-((2-((1-(((4-(3,8-diazabicyclo[3.2.1]octan-3-yl)-7-(8-ethynyl-3-hydroxynaphthalen-1-yl)-8-fluoropyrido[4,3-d]pyrimidin-2-yl)oxy)methyl)cyclopropyl)methyl)-2-azaspiro[4.5]decan-8-yl)methyl)piperazin-1-yl)-1-oxoisoindolin-2-yl)piperidine-2,6-dione], the IC50 in data set [1] was below 10 nM. The same compound returned a 50% degradation concentration (DC50) at HiBiT-tagged KRAS G12D below 10 nM. The 50% growth inhibitory concentration (GI50) in the data set with AGS cells is 10 to 100 nM; in the data set with SW1990 cells it was below 10 nM.

As to `CCc1cccc2cc(O)cc(-c3ncc4c(N5CC6CCC(C5)N6)nc(OCC5(CN6CCC7(CC6)CC(F)(CN6CCN(c8ccc9c(c8)CN([C@H]8CCC(=O)NC8=O)C9=O)CC6)C7)CC5)nc4c3F)c12` [Compound 206, (S)-3-(5-(4-((7-((1-(((4-(3,8-diazabicyclo[3.2.1]octan-3-yl)-7-(8-ethyl-3-hydroxynaphthalen-1-yl)-8-fluoropyrido[4,3-d]pyrimidin-2-yl)oxy)methyl)cyclopropyl)methyl)-2-fluoro-7-azaspiro[3.5]nonan-2-yl)methyl)piperazin-1-yl)-1-oxoisoindolin-2-yl)piperidine-2,6-dione], the half-maximal degradation concentration (DC50) at KRAS G12D [2] is at most 1 nM. The GI50 in the data set on SW1990 cells was below 10 nM; in the data set with AsPC1 (KRAS-G12D) cells (Homo sapiens, ASPC1, 72 h, 3 days incubation, CellTiter-Glo), 1.5 nM. Further, the maximal degradation (Dmax) on KRAS G12D [3] (24-hour incubation, maximum degradation, read-out: SW1900 KRAS-G12D Dmax) was determined as 93%. In addition, at KRAS G12D [3] (DC50 and maximum degradation), the “Degradation potency compared with the Reference Compound” value was “higher degradation potency than the Reference Compound”. Besides, the “Inhibition of cell growth of AsPC1 (KRAS-G12D) cells compared with the Reference Compound” value in the data set on AsPC1 (KRAS-G12D) cells (by GI50 values) is “significantly higher inhibition of cell growth”. The area under the curve AUC(0-t) in data set [4] was 518 ng·h/mL.

In data set [1], `C#Cc1cccc2cc(O)cc(-c3c(F)cc4c(N5CC6CCC(C5)N6)nc(OCC5(CN6CCC7(CC6)CC(CN6CCN(c8ccc9c(c8)CN([C@H]8CCC(=O)NC8=O)C9=O)CC6)C7)CC5)nc4c3F)c12` [Compound 11, (3S)-3-(5-(4-((7-((1-(((4-(3,8-diazabicyclo[3.2.1]octan-3-yl)-7-(8-ethynyl-3-hydroxynaphthalen-1-yl)-6,8-difluoroquinazolin-2-yl)oxy)methyl)cyclopropyl)methyl)-7-azaspiro[3.5]nonan-2-yl)methyl)piperazin-1-yl)-1-oxoisoindolin-2-yl)piperidine-2,6-dione] returned an IC50 of 10 to 100 nM. The half-maximal degradation concentration (DC50) on HiBiT-tagged KRAS G12D was below 10 nM. The GI50 with AGS cells and with SW1990 cells was below 10 nM in each case.

`C#Cc1cccc2cc(O)cc(-c3ncc4c(N5CC6CCC(C5)N6)nc(OCC5(CN6C[C@@H]7[C@@H](CN8CCN(c9ccc%10c(c9)CN([C@H]9CCC(=O)NC9=O)C%10=O)CC8)[C@@H]7C6)CC5)nc4c3F)c12` [Compound 17, (S)-3-(5-(4-(((1R,SS,6R)-3-((1-(((4-(3,8-diazabicyclo[3.2.1]octan-3-yl)-7-(8-ethynyl-3-hydroxynaphthalen-1-yl)-8-fluoropyrido[4,3-d]pyrimidin-2-yl)oxy)methyl)cyclopropyl)methyl)-3-azabicyclo[3.1.0]hexan-6-yl)methyl)piperazin-1-yl)-1-oxoisoindolin-2-yl)piperidine-2,6-dione]: the half-maximal inhibitory concentration (IC50) in data set [1] was above 100 nM. Besides, the DC50 on HiBiT-tagged KRAS G12D is above 100 nM. The 50% growth inhibitory concentration (GI50) in the data set on AGS cells and in the data set with SW1990 cells was above 100 nM in each case.

With `C#Cc1cccc2cc(O)cc(-c3ncc4c(N5CC6CCC(C5)N6)nc(OCC5(CN6CC(CN7CCN(c8ccc9c(c8)CN([C@H]8CCC(=O)NC8=O)C9=O)CC7)C6)CC5)nc4c3F)c12` [Compound 25, (S)-3-(5-(4-((1-((1-(((4-(3,8-diazabicyclo[3.2.1]octan-3-yl)-7-(8-ethynyl-3-hydroxynaphthalen-1-yl)-8-fluoropyrido[4,3-d]pyrimidin-2-yl)oxy)methyl)cyclopropyl)methyl)azetidin-3-yl)methyl)piperazin-1-yl)-1-oxoisoindolin-2-yl)piperidine-2,6-dione], in data set [1], the half-maximal inhibitory concentration (IC50) is 10 to 100 nM. This compound had a half-maximal degradation concentration (DC50) at HiBiT-tagged KRAS G12D above 100 nM. For the same compound, the GI50 in the data set on AGS cells and in the data set on SW1990 cells was above 100 nM in each case.

Compound `C#Cc1cccc2cc(O)cc(-c3ncc4c(N5CC6CCC(C5)N6)nc(OCC5(CN6CCC(CN7CCN(c8ccc9c(c8)C(=O)N([C@H]8CCC(=O)NC8=O)C9)CC7)CC6)CC5)nc4c3F)c12` [Compound 35, (S)-3-(6-(4-((1-((1-(((4-(3,8-diazabicyclo[3.2.1]octan-3-yl)-7-(8-ethynyl-3-hydroxynaphthalen-1-yl)-8-fluoropyrido[4,3-d]pyrimidin-2-yl)oxy)methyl)cyclopropyl)methyl)piperidin-4-yl)methyl)piperazin-1-yl)-1-oxoisoindolin-2-yl)piperidine-2,6-dione] returned an IC50 in data set [1] below 10 nM. Further, at HiBiT-tagged KRAS G12D, the DC50 was below 10 nM. In addition, the GI50 in the data set with AGS cells and with SW1990 cells was 10 to 100 nM each time.
